The values below come from patent publication US20230414573A1, “SYNERGISTIC OPHTHALMOLOGICAL COMPOSITION IN A LOW-CONCENTRATION DOSE THAT IS EFFECTIVE IN THE PREVENTION, CONTROL AND ERADICATION OF PRESBYOPIA” (priority 2020, published 2023).

“And” between values parts separate entries of the source, which are not always exact repeats. Equal values may be shown once.

The test concerns eyes of patients with presbyopia. Nature of the test: Clinical trial: near vision on Rosenbaum chart with Jaeger notation. Type of test: in vivo, human. The note with it: one hour after instillation; for JAEGER- 2 (Jaeger scale, near vision): one drop, synergistic mixture in non-dominant eye, pilocarpine or brimonidine dilution in dominant eye, 11 patients, baseline 5.82; for WINNED LINES (lines gained in the reading primer with Jaeger's notation): synergistic combination in non-dominant eye, comparators in dominant eye. The procedure:
A composition was prepared where patients with presbyopia symptoms were selected. This study was approved by the ethics committee of Optall Vision Eye Center in Mexico City. All patients signed and gave their consent to participate in such study.
For the study, patients with presbyopia, with a corrected visual acuity of 20/25 or better, were included. The diagnosis of presbyopia was determined without correcting near vision acuity was equal to or less than 3 on the Jaeger scale on the Rosenbaum chart improving at least 2 on the Jaeger scale with the use of at least +1.00 D. Age, gender, ocular dominance, uncorrected visual acuity (UCVA), corrected near visual acuity (BNCVA) intraocular pressure with Goldmann applanation tonometer (IOP), pupil diameter under photopic and scotopic conditions (PD), slit lamp biomicroscopic examination and a fundus examination were recorded.
The ophthalmic composition comprised a single low concentration dose of pilocarpine, brimonidine, oxymetazoline/sodium hyaluronate, bromfenac and/or at least one vasoconstrictor and at least one pharmaceutically acceptable vehicle. From said combination, one drop of the synergistic mixture was applied and instilled in the nondominant eye and one drop of pilocarpine or brimonidine dilution was alternately instilled in the dominant eye of consecutive patients. After one hour, uncorrected visual acuity (UCVA), corrected visual acuity (BCVA), uncorrected near visual acuity (UNVA), corrected near visual acuity (BCNVA), intraocular pressure (IOP), pupil diameter (PD), visual analog pain scale (VAS) was measured from 0 to 10. Hyperemia was measured from 1 to 4.
Statistical analyses were performed with SPSS using Pearson's and Spearman's correlation analysis.
The type of modern Jaeger eye chart scale used generally ranges from J10 (approximately 14 points for Times New Roman typeface) to J1 (approximately 3 points, Times New Roman typeface). The chart moves back and forth until you can read a certain font size.

For `Brc1c(NC2=NCCN2)ccc2nccnc12` [Brimonidine, brimonidine], the “JAEGER- 2 (Jaeger scale, near vision)” value was 3.50±−1.761 and 3.5; the “WINNED LINES (lines gained in the reading primer with Jaeger's notation)” value (shortened to “WINNED LINES”) was found to be 2.33. For the same molecule, the “WINNED LINES” value (listed as brimonidine) came out at 2.33±−2.50.

As to `CC[C@@H]1C(=O)OC[C@@H]1Cc1cncn1C` [Pilocarpine, pilocarpine], the “JAEGER- 2 (Jaeger scale, near vision)” value was 4.2 and the “WINNED LINES” value stood at 1.6. Where the note is “listed as pilocarpine”, the “JAEGER- 2 (Jaeger scale, near vision)” value was found to be 4.20±−1.483 and the “WINNED LINES” value is reported as 1.60±−089.
